Assay results taken from patent EP1277754B1, “IMIDAZOPYRIDINE DERIVATIVES” (YAMANOUCHI PHARMACEUTICAL CO. LTD., priority 2000, dated 2001).

System: HCT116 cells
Assay: Colon cancer cell growth inhibition (Alamar Blue)
Format: cell-based
Details: incubation over 72 hours, result in words
Protocol: Test Example 2 Colon cancer cell growth inhibition
HCT116 cells from a colon cancer cell line were cultured in McCoy's 5A medium (GIBCO) supplemented with 10% fetal bovine serum. HCTI 16 cells were inoculated on a 96 well plate (5000 cells/well) followed by overnight incubation. The test compound diluted with the medium was added to the medium in a final concentration of 0.1 to 30µM (final DMSO concentration, 1%). After incubation for over 72 hours, Alamar Blue reagent was added to the medium. Two hours after the addition, a ratio of fluorescent intensity at an excitation wavelength of 530 nm to that at an emission wavelength of 590 nm was measured to determine the IC50.

Compound	cancer cell growth inhibition activity
Cc1ccc([N+](=O)[O-])cc1S(=O)(=O)n1ccc(-c2c(C)nc3ccc(Br)cn23)n1 [Compound 6, 3-(6-Bromo-2-methylimidazo[1,2-a]pyridin-3-yl)-1H-pyrazol-1-yl 2-methyl-5-nitrophenyl sulfone]	good cancer cell growth inhibition activity

System: A375 cells
Assay: Melanoma cell growth inhibition (Alamar Blue)
Format: cell-based
Details: Homo sapiens, A-375, incubation over 46 hours
Protocol: A375 cells from a melanoma cell line were cultured in DMEM medium (GIBCO) supplemented with 10% fetal bovine serum. A375 cells at 10,000 cells/100µl were added to a 96 well plate which contained 1 µl/well of the test compounds (final concentration of 0.001 ~ 30µM). After incubation for over 46 hours, Alamar Blue reagent was added to the medium (10µl/well). Two hours after the addition, a ratio of fluorescent intensity at an excitation wavelength of 530 nm to that at an emission wavelength of 590 nm was measured to determine the IC50 of the test compounds in the same manner as in the above examples.

Compound	IC50 [µM]
Cc1ccc([N+](=O)[O-])cc1S(=O)(=O)n1ccc(-c2cnc3ccc(Br)cn23)n1 [Compound 30, 3-(6-bromoimidazo[1,2-a]pyridin-3-yl)-1H-pyrazol-1-yl 2-methyl-5-nitrophenyl sulfone]	< 1
CN(N=Cc1cnc2ccc(Cl)cn12)S(=O)(=O)c1cc([N+](=O)[O-])ccc1-n1ccnc1 [Compound 112, 2'-[(6-chloroimidazo[1,2-a]pyridin-3-yl)methylidene]-2-(1H-imidazol-1-yl)-1'-methyl-5-nitrobenzenesulfonohydrazide]	< 1
CCc1ccc([N+](=O)[O-])cc1S(=O)(=O)N(C)N=Cc1cnc2ccc(Br)cn12 [Compound 53, 2'-[(6-bromoimidazo[1,2-a]pyridin-3-yl)methylidene]-2-ethyl-1'-methyl-5-nitrobenzenesulfonohydrazide]	< 1
CN(N=Cc1cnc2ccc(Cl)cn12)S(=O)(=O)c1cc([N+](=O)[O-])ccc1N [Compound 59, 2-amino-2'-[(6-chloroimidazo[1,2-a]pyridin-3-yl)methylidene]-1'-methyl-5-nitrobenzenesulfonohydrazide]	< 1
Cc1ccc([N+](=O)[O-])cc1S(=O)(=O)c1nc(-c2cnc3ccc(Cl)cn23)cs1 [Compound 65, 6-chloro-3-[2-(2-methyl-5-nitrobenzenesulfonyl)thiazol-4-yl]imidazo[1,2-a]pyridine]	< 1
Cc1ccc(C#N)cc1S(=O)(=O)N(C)N=Cc1cnc2ccc(C#N)cn12 [Compound 96, 5-cyano-2'-[(6-cyanoimidazo[1,2-a]pyridin-3-yl)methylidene]-1',2-dimethylbenzenesulfonohydrazide]	< 1
Cc1ccc(C#N)cc1S(=O)(=O)N(C)N=Cc1cnc2ccc(Br)cn12 [Compound 54, 3-({2-[(6-bromoimidazo[1,2-a]pyridin-3-yl)methylidene]-1-methylhydrazino}sulfonyl)-4-methylbenzonitrile]	< 1
CN(C)c1ccc([N+](=O)[O-])cc1S(=O)(=O)N(C)N=Cc1cnc2ccc(Cl)cn12 [Compound 113, 2'-[(6-chloroimidazo[1,2-a]pyridin-3-yl)methylidene]-2-dimethylamino-1'-methyl-5-nitrobenzenesulfonohydrazide]	< 1
Cc1ccc([N+](=O)[O-])cc1S(=O)(=O)n1ccc(-c2c(C)nc3ccc(Br)cn23)n1 [Compound 6, 3-(6-Bromo-2-methylimidazo[1,2-a]pyridin-3-yl)-1H-pyrazol-1-yl 2-methyl-5-nitrophenyl sulfone]	< 1
CN(N=Cc1cnc2ccc(Cl)cn12)S(=O)(=O)c1cc([N+](=O)[O-])ccc1OCC(F)(F)F [Compound 60, 2'-[(6-chloroimidazo[1,2-a]pyridin-3-yl)methylidene]-1'-methyl-5-nitro-2-(2,2,2-trifluoroethoxy)benzenesulfonohydrazide]	< 1
Cc1ccc([N+](=O)[O-])cc1S(=O)(=O)N(CCN1CCOCC1)N=Cc1cnc2ccc(Br)cn12 [Compound 77, 6-bromo-3-{[(2-methyl-5-nitrobenzenesulfonyl)(2-morpholinoethyl)hydrazono]methyl}imidazo[1,2-a]pyridine]	< 1

The remaining lines, values ahead:

IC50 [µM]	Compound
< 1	Cc1ccc([N+](=O)[O-])cc1S(=O)(=O)N(C)N=Cc1cnc2ccc(Br)cn12 [Compound 43, 2'-[(6-bromoimidazo[1,2-a]pyridin-3-yl)methylidene]-1',2-dimethyl-5-nitrobenzenesulfonohydrazide]
< 1	Cc1ccc(C#N)cc1S(=O)(=O)N(C)N=Cc1cnc2ccc(F)cn12 [Compound 95, 5-cyano-2'-[(6-fluoroimidazo[1,2-a]pyridin-3-yl)methylidene]-1',2-dimethylbenzenesulfonohydrazide]
< 1	Cc1ccc([N+](=O)[O-])cc1S(=O)(=O)N(C)N=Cc1cnc2ccc(F)cn12 [Compound 57, 2'-[(6-fluoroimidazo[1,2-a]pyridin-3-yl)methylidene]-1',2-dimethyl-5-nitrobenzenesulfonohydrazide]
< 1	Cc1ccc([N+](=O)[O-])cc1S(=O)(=O)N(C)N=Cc1cnc2ccc(C#N)cn12 [Compound 93, 3-{[(methyl)(2-methyl-5-nitrobenzenesulfonyl)hydrazono]methyl}imidazo[1,2-a]pyridine-6-carbonitrile]
< 1	Cc1ccc([N+](=O)[O-])cc1S(=O)(=O)N(C)N=Cc1cnc2ccc(Cl)cn12 [Compound 88, 6-chloro-3-{[(methyl)(2-methyl-5-nitrobenzenesulfonyl)hydrazono]methyl}imidazo[1,2-a]pyridine]

Same assay, conditions: incubation over 46 hours

IC50 [µM]	Compound
< 1	Cc1ccc2ncc(C=NN(C)S(=O)(=O)c3cc([N+](=O)[O-])ccc3C)n2c1 [Compound 99, 1'2-dimethyl-2'-[(6-methylimidazo[1,2-a]pyridin-3-yl)methylidene]-5-nitrobenzenesulfonohydrazide]
